The test system of assay [1] is Staphylococcus aureus, ATCC # 6538. The assay can be described thus: Bactericidal efficacy vs. chlorine standard (available chlorine equivalence). Further details: key to Growth in Test Tube 8 / Growth in Test Tube 9 / Growth in Test Tube 10 / Growth in Test Tube 1 / Growth in Test Tube 2 / Growth in Test Tube 3 / Growth in Test Tube 4 / Growth in Test Tube 5 / Growth in Test Tube 6 / Growth in Test Tube 7: (+) = growth; (−) = no growth. The settings on record: S. aureus. It counts as cell-based. How it is done: (§1) Example 2 compared the bactericidal efficacy of the thickened quaternary ammonium compound sanitizer composition (Formula 7) to that of a known concentration of chlorine. […] The mix order for Formula 7 is as follows: (1) water; (2) propylene glycol; (3) LonzaGuard; (4) FD&C Red #40; (5) Methocel; (6) Triethanolamine; and (7) Ethanol. Formula 7 and the chlorine standard were tested against Staphylococcus aureus, ATCC # 6538 and Salmonella typhi, ATCC # 6539. The chlorine standard was prepared by adding 0.1 ml of a 5% NaOCl stock solution (refrigerated Clorox® bleach) to 100 ml of sterile phosphate buffer solution to create a 50–55 ppm available chlorine concentration.
(§2) For the chlorine standard test, 0.05 ml of the test culture was added to a test tube with 50 ppm available chlorine. The test tube was placed in a 20° C. water bath. After 1 minute, the solution was transferred to test tube 1 with 10 ml of Fluid Thioglycollate medium (commercially available from Becton Dickinson (Sparks, Md.)). These steps were repeated for nine test tubes.
(§3) For Formula 7, the same series of test tubes used for the available chlorine test was used to test the quaternary ammonium compound sanitizer composition. 0.05 ml of test culture was added to Formula 7. The test tube was placed in a 20° C. water bath. After 1 minute, the solution was transferred to a test tube with 10 ml of Letheen broth in place of the Fluid Thioglycollate medium.
(§4) The formulas in Table 4 were tested with Staphylococcus aureus, ATCC # 6538 and Salmonella typhi, ATCC # 6539. […] A “+” sign means that the test tube had bacteria growth.
(§5) Equivalency is met when the sample tubes have an absence of growth in as many tubes as the chlorine standard.

In assay [2] the test system is Salmonella typhi, ATCC # 6539. Described as above. It counts as cell-based. Further details: key to Growth in Test Tube 8 / Growth in Test Tube 9 / Growth in Test Tube 10 / Growth in Test Tube 1 / Growth in Test Tube 2 / Growth in Test Tube 3 / Growth in Test Tube 4 / Growth in Test Tube 5 / Growth in Test Tube 6 / Growth in Test Tube 7: (+) = growth; (−) = no growth. Conditions: S. typhi. The protocol: as §1, §2, §3, §4, §5

[3] abbreviates: text does not separate the organisms.

This is an account of results in patent US7112559B1, “Thickened quaternary ammonium compound sanitizer” (Ecolab Inc., priority 2005, dated 2006).

With `[Na+].[O-]Cl` [NaOCl], in assay [1] (1 minute, 20° C.), the “Growth in Test Tube 1” value was “−”, the “Growth in Test Tube 2” value is listed as “−”, the “Growth in Test Tube 3” value was “+” and the “Growth in Test Tube 4” value was “+”. Also, in assay [1] (1 minute, 20° C.), the “Growth in Test Tube 5” value is reported as “+”, the “Growth in Test Tube 6” value was “+”, the “Growth in Test Tube 7” value is given as “+” and the “Growth in Test Tube 8” value was “+”. In assay [1] (1 minute, 20° C.), the “Growth in Test Tube 9” value is given as “+” and the “Growth in Test Tube 10” value is “+”. Also, the “Growth in tubes 1–10” value in assay [1] (setting [3]) is on record as “growth in tubes 3–10”. Moreover, in assay [2] (1 minute, 20° C.), the “Growth in Test Tube 1” value is listed as “−”, the “Growth in Test Tube 2” value is “−”, the “Growth in Test Tube 3” value is “+” and the “Growth in Test Tube 4” value is “+”. Further, in assay [2] (1 minute, 20° C.), the “Growth in Test Tube 5” value is listed as “+”, the “Growth in Test Tube 6” value is listed as “+”, the “Growth in Test Tube 7” value is “+” and the “Growth in Test Tube 8” value is “+”. Also, in assay [2] (1 minute, 20° C.), the “Growth in Test Tube 9” value is “+” and the “Growth in Test Tube 10” value was “+”. The “Growth in tubes 1–10” value in assay [2] (setting [3]) is on record as “growth in tubes 3–10”.
